Experimental findings from ChEMBL document CHEMBL1201862, “PubChem BioAssay data set” (2004) are described below.

Assay [1] addresses Cyclin-dependent kinase 5 (Homo sapiens, UniProt Q00535). It is filed as functional.
Assay [2] addresses Calcium/calmodulin-dependent protein kinase type 1 (Homo sapiens, UniProt Q14012). The class given is functional.
Assay [3] addresses Cyclin-dependent kinase 2 (Homo sapiens, UniProt P24941). It is filed as functional.
Assay [4] has as its target Serine/threonine-protein kinase MRCK alpha (Homo sapiens, UniProt Q5VT25). It is filed as functional.
In assay [5] the target is Cyclin-dependent kinase 1 (Homo sapiens, UniProt P06493). It is filed as functional.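 Also: Kinome-wide panel profiling, with the target listed as panel member CDC2.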
In assay [6] the target is Tyrosine-protein kinase JAK3 (Homo sapiens, UniProt P52333). The class given is functional.
For assay [7], the target named is Serine/threonine-protein kinase DCLK1 (Homo sapiens, UniProt O15075). The class given is functional.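 Also: affinity for DCLK1 (listed as DCAMKL1) measured as one member of a kinome-wide kinase profiling panel.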
Another assay has as its target LIM domain kinase 1 (Homo sapiens, UniProt P53667). In words: Navigating the Kinome. Panel member name: LIMK1. It is filed as functional.
Assay [8] deals with Serine/threonine-protein kinase BRSK1 (Homo sapiens, UniProt Q8TDC3). It is filed as functional.
Assay [9] has as its target MAP kinase-activated protein kinase 3 (Homo sapiens, UniProt Q16644). It is filed as functional.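 Also: value comes from a kinome-wide profiling panel in which MAPKAPK3 is one of the panel members.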
Assay [10] has as its target 5'-AMP-activated protein kinase catalytic subunit alpha-1 (Homo sapiens, UniProt Q13131). The class given is functional.
The test system of assay [11] is Streptococcus sp. 'group A'. In words: Streptococcus pyogenes SK(-)GAS viability under kanamycin – luminescence, BacTiterGlo, confirmation, counter-screen for streptokinase expression inhibitor project, dose response (AID 1900). The class given is functional, organism-based. For orientation: Counterscreens check selectivity or assay interference.
For assay [12], the target named is Eukaryotic translation initiation factor 4E (Mus musculus, UniProt P63073). In words: blockers of eIF4G binding by eIF4E – biochemical, TR-FRET, dose response (AID 855).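 Also: potency for disrupting eIF4E binding to eIF4GI seen as loss of FRET.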 The class given is functional. For orientation: TR-FRET usually uses a lanthanide donor and a delayed reading to cut background.
A short description of assay [13]: Luminescence Cell-Based Dose Confirmation HTS to Identify Activators of 5'UTR Stem-Loop Driven Alpha-Synuclein mRNA Translation in H4 Neuroglioblastoma Cells. [Related pubchem assays: 1829 (Project Summary), 1814 (Primary HTS)]. It is filed as functional.
The test system of a further assay is H4. In words: Luminescence Cell-Based Dose Response HTS to Identify Activators of 5'UTR Stem-Loop Driven Prion Protein mRNA Translation in H4 Neuroglioblastoma Cells. [Related pubchem assays: 1829 (Project Summary), 1814 (Primary HTS)]. It is filed as functional. The settings on record: Homo sapiens.
Assay [14] can be described thus: Counterscreen for AddAB inhibitors: absorbance-based bacterial cell-based high throughput dose response assay for inhibitors of bacterial viability. [Related pubchem assays (depositor defined):AID435030, AID449728, AID449731, AID488942, AID488955, AID488956]. The class given is functional.
Assay [15] relates to HEK293. In words: SAR Analysis of small molecule inhibitors of T-cell specific antigen receptor-induced NF-kB activation in a HEK-293T cell line using a luminescence assay - Set 2. [Related pubchem assays (depositor defined):AID435003, AID435012, AID489026]. It is filed as functional, cell-based. The settings on record: Homo sapiens.
Assay [16] can be described thus: reduction of Shn3 3'UTR-driven luciferase in osteoblasts – cell-based, Clone20 osteoblasts, firefly luciferase, cherry-picked, dose response (AID 624132).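 Also: firefly luciferase luminescence from reporter carrying the Shn3 3'UTR in osteoblasts.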 The class given is functional.
In assay [17] the test system is HEK293. In words: HEK293T cell viability loss, resazurin readout – resazurin fluorescence, cytotoxicity control for NF-kB activator project, SAR follow-up (AID 493251). It is filed as functional, cell-based. (In general: The colour change of resazurin is a common sign of viable cells or microbes.)
Assay [18] can be described thus: non-specific 3'UTR reporter inhibition in Clone20-Shn3RL – cell-based, Renilla luciferase, cherry-picked, counter-screen for Shn3 inhibitor project, dose response (AID 624133). The class given is functional.
Assay [19] has as its target T1, Histone-lysine N-methyltransferase NSD2 (Homo sapiens, UniProt O96028).
T1 sequence (O96028 whole entry): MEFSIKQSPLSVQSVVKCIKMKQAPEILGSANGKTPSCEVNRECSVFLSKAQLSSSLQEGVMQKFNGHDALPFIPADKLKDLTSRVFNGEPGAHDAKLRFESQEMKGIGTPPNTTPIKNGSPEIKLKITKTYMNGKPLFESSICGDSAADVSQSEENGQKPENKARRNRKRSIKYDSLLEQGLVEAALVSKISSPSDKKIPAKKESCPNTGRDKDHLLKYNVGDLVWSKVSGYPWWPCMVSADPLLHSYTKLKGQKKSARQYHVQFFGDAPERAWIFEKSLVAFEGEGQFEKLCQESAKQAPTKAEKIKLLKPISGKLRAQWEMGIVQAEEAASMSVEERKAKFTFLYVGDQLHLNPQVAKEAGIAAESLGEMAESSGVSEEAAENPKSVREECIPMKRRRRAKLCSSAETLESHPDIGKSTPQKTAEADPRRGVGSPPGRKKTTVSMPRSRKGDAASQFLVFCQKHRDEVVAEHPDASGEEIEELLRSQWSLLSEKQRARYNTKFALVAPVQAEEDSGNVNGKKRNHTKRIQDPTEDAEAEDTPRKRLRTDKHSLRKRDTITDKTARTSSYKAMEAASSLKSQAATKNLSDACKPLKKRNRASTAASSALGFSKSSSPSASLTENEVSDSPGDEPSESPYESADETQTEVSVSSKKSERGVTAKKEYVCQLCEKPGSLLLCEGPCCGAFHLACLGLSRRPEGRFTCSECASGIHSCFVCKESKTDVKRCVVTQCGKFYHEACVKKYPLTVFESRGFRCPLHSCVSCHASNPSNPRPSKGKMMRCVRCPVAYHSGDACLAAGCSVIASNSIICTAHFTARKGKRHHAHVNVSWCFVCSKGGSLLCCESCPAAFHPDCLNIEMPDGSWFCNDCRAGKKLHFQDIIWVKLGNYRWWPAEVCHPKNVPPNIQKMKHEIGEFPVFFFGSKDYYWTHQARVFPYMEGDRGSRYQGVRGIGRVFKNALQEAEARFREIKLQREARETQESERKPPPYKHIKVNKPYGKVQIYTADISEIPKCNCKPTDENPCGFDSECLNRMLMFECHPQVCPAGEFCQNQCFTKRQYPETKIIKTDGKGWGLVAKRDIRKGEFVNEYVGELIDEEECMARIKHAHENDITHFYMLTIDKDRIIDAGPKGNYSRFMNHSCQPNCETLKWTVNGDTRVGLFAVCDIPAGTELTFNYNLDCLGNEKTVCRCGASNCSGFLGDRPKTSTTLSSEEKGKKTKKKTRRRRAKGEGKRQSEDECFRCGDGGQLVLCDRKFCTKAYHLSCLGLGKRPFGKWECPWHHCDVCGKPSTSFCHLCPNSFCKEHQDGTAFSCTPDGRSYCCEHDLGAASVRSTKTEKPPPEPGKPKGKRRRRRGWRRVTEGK
The class given is biochemical.

Assay [20] has as its target Serine/threonine-protein phosphatase (Candida dubliniensis (strain CD36 / CBS 7987 / NCPF 3949 / NRRLY-17841) (Yeast), UniProt B9W6M3). In words: Fluorescence Cell-Based Secondary Assay to Identify Inhibitors of Calcineurin. [Related pubchem assays (depositor defined):AID1979, AID2007]. The class given is functional.

Structures are written as SMILES. Active and inactive are the calls of the source.

Sequence of Eukaryotic translation initiation factor 4E (P63073 whole entry): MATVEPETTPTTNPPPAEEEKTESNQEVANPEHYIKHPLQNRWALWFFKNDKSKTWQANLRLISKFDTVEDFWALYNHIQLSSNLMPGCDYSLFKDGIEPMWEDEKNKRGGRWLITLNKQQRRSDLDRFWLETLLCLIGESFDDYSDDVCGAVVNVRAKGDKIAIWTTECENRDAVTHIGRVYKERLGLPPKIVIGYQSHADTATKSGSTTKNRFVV
Sequence of Cyclin-dependent kinase 5 (Q00535 whole entry): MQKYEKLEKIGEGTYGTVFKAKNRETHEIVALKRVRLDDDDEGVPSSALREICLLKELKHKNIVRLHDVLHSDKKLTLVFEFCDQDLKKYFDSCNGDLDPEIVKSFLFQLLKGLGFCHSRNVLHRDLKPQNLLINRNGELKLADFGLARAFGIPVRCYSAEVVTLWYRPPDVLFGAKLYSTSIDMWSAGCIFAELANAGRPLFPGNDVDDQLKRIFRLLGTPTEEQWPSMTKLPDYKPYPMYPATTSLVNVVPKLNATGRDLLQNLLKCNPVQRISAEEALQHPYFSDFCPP
Sequence of 5'-AMP-activated protein kinase catalytic subunit alpha-1 (Q13131 whole entry): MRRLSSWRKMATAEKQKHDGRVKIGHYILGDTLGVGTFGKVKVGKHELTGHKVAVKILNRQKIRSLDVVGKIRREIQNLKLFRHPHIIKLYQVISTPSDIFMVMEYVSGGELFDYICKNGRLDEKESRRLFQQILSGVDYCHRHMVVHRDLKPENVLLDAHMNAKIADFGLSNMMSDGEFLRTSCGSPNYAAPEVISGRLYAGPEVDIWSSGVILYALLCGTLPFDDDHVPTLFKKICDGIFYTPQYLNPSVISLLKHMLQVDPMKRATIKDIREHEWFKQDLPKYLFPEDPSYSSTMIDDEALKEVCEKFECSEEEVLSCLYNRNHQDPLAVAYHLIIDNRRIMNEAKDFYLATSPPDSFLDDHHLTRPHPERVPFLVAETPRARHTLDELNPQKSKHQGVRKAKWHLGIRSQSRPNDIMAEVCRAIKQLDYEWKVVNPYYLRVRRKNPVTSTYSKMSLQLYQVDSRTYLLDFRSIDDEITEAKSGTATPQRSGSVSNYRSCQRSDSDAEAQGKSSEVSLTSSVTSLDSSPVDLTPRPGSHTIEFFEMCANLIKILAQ
Sequence of Serine/threonine-protein kinase BRSK1 (Q8TDC3 whole entry): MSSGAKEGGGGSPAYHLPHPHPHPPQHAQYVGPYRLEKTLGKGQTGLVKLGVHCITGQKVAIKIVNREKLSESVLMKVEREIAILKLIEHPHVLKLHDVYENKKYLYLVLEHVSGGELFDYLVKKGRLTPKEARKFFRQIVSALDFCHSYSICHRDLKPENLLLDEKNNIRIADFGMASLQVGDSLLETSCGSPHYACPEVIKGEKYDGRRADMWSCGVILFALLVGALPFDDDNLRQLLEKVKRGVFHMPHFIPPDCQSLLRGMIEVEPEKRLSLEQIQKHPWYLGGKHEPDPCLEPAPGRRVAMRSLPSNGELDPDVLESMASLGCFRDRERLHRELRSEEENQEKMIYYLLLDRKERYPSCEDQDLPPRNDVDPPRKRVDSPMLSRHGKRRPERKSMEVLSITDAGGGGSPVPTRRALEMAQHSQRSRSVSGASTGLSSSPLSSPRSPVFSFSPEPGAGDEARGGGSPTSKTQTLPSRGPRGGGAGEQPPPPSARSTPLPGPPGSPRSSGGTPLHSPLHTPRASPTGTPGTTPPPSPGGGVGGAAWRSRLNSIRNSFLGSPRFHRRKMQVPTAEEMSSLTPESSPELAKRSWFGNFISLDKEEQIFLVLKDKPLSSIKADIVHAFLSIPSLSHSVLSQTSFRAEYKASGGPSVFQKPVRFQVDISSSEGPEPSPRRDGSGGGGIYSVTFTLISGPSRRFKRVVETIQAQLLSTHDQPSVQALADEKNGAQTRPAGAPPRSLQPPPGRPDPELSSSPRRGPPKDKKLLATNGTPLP
Sequence of Tyrosine-protein kinase JAK3 (P52333 whole entry): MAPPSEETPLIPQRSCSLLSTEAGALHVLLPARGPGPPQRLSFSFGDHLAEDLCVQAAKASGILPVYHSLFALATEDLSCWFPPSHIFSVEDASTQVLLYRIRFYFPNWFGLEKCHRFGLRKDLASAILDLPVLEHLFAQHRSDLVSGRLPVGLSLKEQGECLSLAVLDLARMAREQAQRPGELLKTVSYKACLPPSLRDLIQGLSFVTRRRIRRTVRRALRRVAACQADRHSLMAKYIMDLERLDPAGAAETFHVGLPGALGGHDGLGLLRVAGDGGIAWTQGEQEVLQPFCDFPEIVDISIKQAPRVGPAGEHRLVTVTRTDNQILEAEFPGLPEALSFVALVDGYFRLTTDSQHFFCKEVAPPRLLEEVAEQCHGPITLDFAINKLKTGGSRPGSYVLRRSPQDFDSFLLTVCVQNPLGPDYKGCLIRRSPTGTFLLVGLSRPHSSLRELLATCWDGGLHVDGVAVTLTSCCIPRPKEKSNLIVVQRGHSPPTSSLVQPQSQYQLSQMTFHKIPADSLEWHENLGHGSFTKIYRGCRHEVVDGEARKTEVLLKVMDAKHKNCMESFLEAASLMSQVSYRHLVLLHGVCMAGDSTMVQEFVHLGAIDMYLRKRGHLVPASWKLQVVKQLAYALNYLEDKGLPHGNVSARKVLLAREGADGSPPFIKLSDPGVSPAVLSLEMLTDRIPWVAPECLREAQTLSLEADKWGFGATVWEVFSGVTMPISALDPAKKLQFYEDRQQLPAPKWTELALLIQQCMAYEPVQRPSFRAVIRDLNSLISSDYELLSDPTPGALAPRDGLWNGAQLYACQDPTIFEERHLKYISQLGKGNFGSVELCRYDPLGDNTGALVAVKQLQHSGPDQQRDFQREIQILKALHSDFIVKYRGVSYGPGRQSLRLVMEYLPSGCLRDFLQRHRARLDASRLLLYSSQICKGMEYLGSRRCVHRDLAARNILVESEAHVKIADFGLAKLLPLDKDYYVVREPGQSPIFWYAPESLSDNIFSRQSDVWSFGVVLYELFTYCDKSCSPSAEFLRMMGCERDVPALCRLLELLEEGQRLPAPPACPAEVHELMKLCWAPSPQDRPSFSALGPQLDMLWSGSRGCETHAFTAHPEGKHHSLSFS
Sequence of LIM domain kinase 1 (P53667 whole entry, the tested form may be a part): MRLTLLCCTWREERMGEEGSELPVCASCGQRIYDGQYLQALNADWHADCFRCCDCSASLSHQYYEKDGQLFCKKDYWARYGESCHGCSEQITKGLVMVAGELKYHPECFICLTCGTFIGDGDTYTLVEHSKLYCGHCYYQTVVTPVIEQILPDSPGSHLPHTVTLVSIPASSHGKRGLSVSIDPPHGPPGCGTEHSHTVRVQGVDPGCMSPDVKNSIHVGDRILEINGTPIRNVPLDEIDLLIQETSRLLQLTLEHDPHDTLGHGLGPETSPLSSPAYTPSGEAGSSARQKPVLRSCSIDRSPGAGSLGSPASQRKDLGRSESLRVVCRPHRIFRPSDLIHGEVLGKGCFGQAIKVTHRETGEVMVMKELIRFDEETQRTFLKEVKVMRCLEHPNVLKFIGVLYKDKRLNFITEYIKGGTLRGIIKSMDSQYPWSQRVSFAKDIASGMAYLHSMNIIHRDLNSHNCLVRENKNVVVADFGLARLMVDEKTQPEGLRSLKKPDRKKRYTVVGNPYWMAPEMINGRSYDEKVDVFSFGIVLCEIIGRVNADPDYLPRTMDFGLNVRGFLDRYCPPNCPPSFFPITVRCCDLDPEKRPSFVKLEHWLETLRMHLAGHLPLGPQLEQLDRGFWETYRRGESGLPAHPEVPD
Sequence of Serine/threonine-protein kinase DCLK1 (O15075 whole entry, the tested form may be a part): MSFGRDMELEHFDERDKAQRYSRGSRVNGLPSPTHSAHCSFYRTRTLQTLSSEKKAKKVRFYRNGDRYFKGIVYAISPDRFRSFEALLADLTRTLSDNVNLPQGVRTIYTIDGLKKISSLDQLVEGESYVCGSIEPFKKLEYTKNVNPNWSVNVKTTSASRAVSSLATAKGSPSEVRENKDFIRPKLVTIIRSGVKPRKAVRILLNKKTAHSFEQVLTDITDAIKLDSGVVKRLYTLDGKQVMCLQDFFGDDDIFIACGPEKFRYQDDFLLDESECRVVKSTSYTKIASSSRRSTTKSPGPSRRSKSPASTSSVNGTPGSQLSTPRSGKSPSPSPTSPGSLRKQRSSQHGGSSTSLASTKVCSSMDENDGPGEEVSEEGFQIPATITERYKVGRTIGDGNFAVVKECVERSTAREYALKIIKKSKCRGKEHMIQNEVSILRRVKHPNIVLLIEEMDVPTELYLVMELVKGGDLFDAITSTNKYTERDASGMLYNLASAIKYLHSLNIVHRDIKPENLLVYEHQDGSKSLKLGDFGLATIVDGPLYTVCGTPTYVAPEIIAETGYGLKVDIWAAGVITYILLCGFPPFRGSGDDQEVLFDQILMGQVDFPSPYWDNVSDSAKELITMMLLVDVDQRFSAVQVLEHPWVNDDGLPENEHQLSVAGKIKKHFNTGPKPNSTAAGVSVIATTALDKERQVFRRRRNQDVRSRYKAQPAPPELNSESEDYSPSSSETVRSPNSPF
Sequence of Cyclin-dependent kinase 1 (P06493 whole entry): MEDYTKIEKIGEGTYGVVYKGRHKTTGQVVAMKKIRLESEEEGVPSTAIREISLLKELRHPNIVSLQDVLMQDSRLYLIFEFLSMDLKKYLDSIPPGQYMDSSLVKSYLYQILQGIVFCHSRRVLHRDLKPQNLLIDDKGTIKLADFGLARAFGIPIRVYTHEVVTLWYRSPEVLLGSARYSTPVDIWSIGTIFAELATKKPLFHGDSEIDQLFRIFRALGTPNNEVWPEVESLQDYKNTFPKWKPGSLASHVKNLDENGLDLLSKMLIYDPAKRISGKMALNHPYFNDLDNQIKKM
Sequence of Calcium/calmodulin-dependent protein kinase type 1 (Q14012 whole entry): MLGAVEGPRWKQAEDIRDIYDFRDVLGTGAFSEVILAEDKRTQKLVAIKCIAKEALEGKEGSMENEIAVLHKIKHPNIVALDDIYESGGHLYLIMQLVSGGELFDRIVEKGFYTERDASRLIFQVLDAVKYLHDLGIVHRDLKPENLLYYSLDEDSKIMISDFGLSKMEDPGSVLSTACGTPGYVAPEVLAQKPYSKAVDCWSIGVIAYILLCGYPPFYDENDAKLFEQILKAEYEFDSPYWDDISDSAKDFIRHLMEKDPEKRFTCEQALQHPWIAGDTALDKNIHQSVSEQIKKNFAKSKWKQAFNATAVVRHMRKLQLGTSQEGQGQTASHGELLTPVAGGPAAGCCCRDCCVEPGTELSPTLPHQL

A word on the Ki: it is a measure of affinity in units of concentration, obtained from inhibition or displacement. In the case of `Cc1cccc(NC(=O)Nc2ccc3c(c2)CCc2sc4ncnc(N)c4c2-3)c1`, the Ki in [1] is > 10 µM (inactive); in [2], > 6.31 µM (inactive); in [3] it was > 7.94 µM (inactive); in assay [4] it was > 10 µM (inactive); in assay [5], > 7.94 µM (inactive); in assay [6], > 1.58 µM (inactive). Besides, the Ki in [7] is > 10 µM (inactive); at LIM domain kinase 1, 631 nM (active); in assay [8], 3.16 µM (active); in [9], > 10 µM (inactive); in [10], 398 nM (active).

A word on the EC50: it is the midpoint of the concentration-response curve. One may read the IC50 as the concentration at which inhibition is half-maximal. Turning to `Cc1ccc(-n2sc3ccccc3c2=O)cc1`, the EC50 in assay [11] is 1.02 µM (active); in assay [13], > 120 µM (not active); with H4, 88.2 µM (active). Moreover, the IC50 in [12] is 15.2 µM (active).

What is called AC50 is the concentration giving half of the maximal activity seen. Turning to `CCC(=O)NC(c1ccc(C)cc1)c1ccc2cccnc2c1O` (stereo not drawn), the IC50 in assay [14] is > 119 µM (inactive); with HEK293 [15], 7.02 µM (active); with HEK293 [17] (Homo sapiens, HEK293) it was 12.9 µM (active). Moreover, the AC50 in assay [16] is 704 nM (active); in [18], 383 nM (active).

Consider `N/C(=N\N=C/c1ccc(-c2ccc(O)c(C(=O)O)c2)o1)N[N+](=O)[O-]`, for which, in [19], the AC50 is 7.57 µM (active). In [12], the IC50 is 63.6 µM (inactive).

In the case of `CC(=O)N(/N=C1\Sc2ccccc2C1=O)c1ccccc1C`, the AC50 in assay [19] was 0.548 µM (active). Besides, the 50% effective concentration (EC50) is 2.51 µM (active) in assay [13] and 33.4 µM (active) in the assay with H4.

For `CCCC(=O)NC(c1ccc(Cl)cc1)c1ccc2cccnc2c1O` (stereo not drawn), the IC50 is > 119 µM (inactive) in [14]; 4.23 µM (active) with HEK293 [15]; 8.63 µM (active) with HEK293 [17] (Homo sapiens, HEK293); 9.55 µM (active) in the assay with HEK293 [17] (hek293). The EC50 in assay [11] is 2.17 µM (active); in assay [20], > 285 µM (inactive). For the same compound, the AC50 in assay [16] was 937 nM (active); in assay [18] it was 2720 nM (active).
